Patent publication US11999964B2, “Synthetic mammalian signaling circuits for robust cell population control” (California Institute of Technology, priority 2020, dated 2024)

Tested on: cheaters from the negative feedback condition
Assay: AP1903 killing of cheaters from the negative feedback condition
Assay type: cell-based, Hamster
Details: 50 nM AP1903, two days, even in the presence of NAA
Description: FIGS. 12A-12C depict non-limiting exemplary data showing the paradoxical circuit allows mutationally robust population control. (FIG. 12A) Cell lines evolved under paradoxical conditions are phenotypically different from cheaters evolved under negative feedback. Each dot represents one culture. Cells evolved under the negative feedback conditions form a tight cluster, which is fitted with a 2-D gaussian to show the 95 percentile (orange dashed ellipse). […] (FIG. 12B) Under paradoxical, but not negative feedback, conditions, mutations that reduce auxin sensing lead to apoptosis in cheaters (red inhibitory arrow), preventing unregulated growth and mutational escape. […] Cells were incubated with different levels of NAA for 6 hours, and then 50 nM of AP1903 was added (except in controls) for another two days. Confluencies were measured and normalized to the no AP1903 control (n=3).

Compound: CC[C@H](C(=O)N1CCCC[C@H]1C(=O)O[C@H](CCc1ccc(OC)c(OC)c1)c1cccc(OCC(=O)NCCNC(=O)COc2cccc([C@@H](CCc3ccc(OC)c(OC)c3)OC(=O)[C@@H]3CCCCN3C(=O)[C@@H](CC)c3cc(OC)c(OC)c(OC)c3)c2)c1)c1cc(OC)c(OC)c(OC)c1 [AP1903]
- Effect of iCasp9 activation by AP1903 on cheaters: kills cheaters
